Reference: ChEMBL document CHEMBL1129818, “Discovery of anti-influenza A virus activity of a corynanthe-type indole alkaloid, hirsutine, in vitro and the structure-activity relationship of natural and synthetic analogs” (Bioorg Med Chem Lett, 1997)
≈ marks a conversion by molar mass, not a printed value. Where “and” joins values, the source holds several entries; their conditions need not be identical. Identical values can stand only once.

How the values were obtained:
MDCK [1] = assay: Cytotoxicity was measured by Anti-influenza A virus Ishikawa/7/82 in MDCK cells by MTT assay; type: functional; conditions: Canis lupus familiaris
MDCK [2] = assay: Effective concentration required to determine Anti-influenza A virus Ishikawa/7/82 in MDCK cells by MTT assay; type: functional, cell-based; conditions: Canis lupus familiaris
[3] = Selectivity index for effective concentration to that of Cytotoxicity in MDCK cells by MTT assay; type: functional
MDCK [4] = assay: The compound was evaluated for inhibitory effect on the replication of influenza A subtype H1N1 Bangkok/10/83 strain in MDCK cells; type: functional, cell-based; conditions: Canis lupus familiaris
MDCK [5] = assay: The compound was evaluated for inhibitory effect on the replication of influenza A subtype H1N1 PR8/34 strain in MDCK cells; type: functional, cell-based; conditions: Canis lupus familiaris
MDCK [6] = assay: The compound was evaluated for cytotoxicity by MTT assay in MDCK cells; type: functional; conditions: Canis lupus familiaris
MDCK [7] = assay: The compound was evaluated for inhibitory effect on the replication of influenza A subtype H1N1 yamagata/120/86 strain in MDCK cells; type: functional, cell-based; conditions: Canis lupus familiaris
MDCK [8] = assay: The compound was evaluated for inhibitory effect on the replication of influenza A subtype H2N2 Adachi/2/57 in MDCK cells; type: functional, cell-based; conditions: Canis lupus familiaris
MDCK [9] = assay: The compound was evaluated for inhibitory effect on the replication of influenza A subtype H2N2 murakami/4/64 strain in MDCK cells; type: functional, cell-based; conditions: Canis lupus familiaris
MDCK [10] = assay: The compound was evaluated for inhibitory effect on the replication of influenza A subtype H3N2 ishikawa/7/82 in MDCK cells; type: functional, cell-based; conditions: Canis lupus familiaris
MDCK [11] = assay: The compound was evaluated for inhibitory effect on the replication of influenza A subtype H3N2 Philippine/2/82 in MDCK cells; type: functional, cell-based; conditions: Canis lupus familiaris
MDCK [12] = assay: The compound was evaluated for inhibitory effect on the replication of influenza B norway/1/80 strain in MDCK cells; type: functional, cell-based; conditions: Canis lupus familiaris
MDCK [13] = assay: The compound was evaluated for inhibitory effect on the replication of influenza B Singapore/222/79 strain in MDCK cells; type: functional, cell-based; conditions: Canis lupus familiaris
[14] = Selectivity index ratio of CC50 / EC50 was determined; type: functional

Row | Compound | CC50 (MDCK [1]) | EC50 (MDCK [2]) | Selectivity index [3] | further results
1 | CC[C@@H]1CN2CCc3c([nH]c4ccccc34)[C@@H]2C[C@@H]1/C(=C\OC)C(=O)OC [CORYNANRHEIDINE] | 45.1 µg/mL (≈ 122 µM) | > 45.1 µg/mL |  | 
2 | CC[C@H]1CN2CCc3c([nH]c4ccccc34)[C@H]2C[C@@H]1/C(=C/OC)C(=O)O | 39.2 µg/mL (≈ 111 µM) | > 39.2 µg/mL |  | 
3 | CCO/C=C(\C(=O)OC)[C@H]1C[C@@H]2c3[nH]c4ccccc4c3CCN2C[C@@H]1CC | 32.4 µg/mL (≈ 84.7 µM) | 0.9 µg/mL (≈ 2.35 µM) | 36.4 | 
4 | C=C(C(=O)OC)[C@H]1C[C@@H]2c3[nH]c4ccccc4c3CCN2C[C@@H]1CC | 62.1 µg/mL (≈ 183 µM) | > 62.1 µg/mL |  | 
5 | CC[C@H]1C[N+]2(C)CCc3c([nH]c4ccccc34)[C@H]2C[C@@H]1/C(=C\OC)C(=O)OC (some centres undefined) | > 100 µg/mL | > 100 µg/mL |  | 
6 | CC[C@H]1CN2CCc3c(n(C)c4ccccc34)[C@H]2C[C@@H]1/C(=C\OC)C(=O)OC | 25.3 µg/mL (≈ 66.1 µM) | 1.7 µg/mL (≈ 4.44 µM) | 15.8 | 
7 | CC[C@H]1CN2Cc3c(nc4ccccc4c3O)[C@H]2C[C@@H]1/C(=C\OC)C(=O)OC | 38.1 µg/mL (≈ 99.6 µM) | > 38.1 µg/mL |  | 
8 | CC[C@H]1CN2CCc3c([nH]c4ccccc34)[C@@H]2C[C@@H]1/C(=C/OC)C(=O)OC [DIHYDROCORYNANTHEINE] | 86.3 µg/mL (≈ 234 µM) | > 86.3 µg/mL |  | 
9 | CC[C@H]1CN2CC[C@]3(O)C(=Nc4ccccc43)[C@H]2C[C@@H]1/C(=C\OC)C(=O)OC | > 100 µg/mL | > 100 µg/mL |  | 
10 | CC[C@H]1C[N+]2([O-])CCc3c([nH]c4ccccc34)[C@H]2C[C@@H]1/C(=C\OC)C(=O)OC (some centres undefined) | > 100 µg/mL | 86.4 µg/mL (≈ 225 µM) | >1.2 | 
11 | CC[C@H]1CN2CCc3c([nH]c4ccccc34)[C@H]2C[C@@H]1C(/C=N\C)=C(/O)OC | 3.9 µg/mL (≈ 10.6 µM) | > 3.9 µg/mL |  | 
12 | NC(=O)c1ncn([C@@H]2O[C@H](CO)[C@@H](O)[C@H]2O)n1 [RIBAVIRIN] |  |  |  | EC50 (MDCK [4]): 34.2 µg/mL (≈ 140 µM); EC50 (MDCK [5]): 8.3 µg/mL (≈ 34 µM); CC50 (MDCK [6]): > 100 µg/mL; EC50 (MDCK [7]): 11.7 µg/mL (≈ 47.9 µM); EC50 (MDCK [8]): 2.2 µg/mL (≈ 9.01 µM); EC50 (MDCK [9]): 2.1 µg/mL (≈ 8.6 µM); EC50 (MDCK [10]): 7.9 µg/mL (≈ 32.3 µM); EC50 (MDCK [11]): 6.1 µg/mL (≈ 25 µM); EC50 (MDCK [12]): 5.5 µg/mL (≈ 22.5 µM); EC50 (MDCK [13]): 8.5 µg/mL (≈ 34.8 µM)
13 | CC[C@H]1CN2CCc3c([nH]c4cccc(OC)c34)[C@H]2C[C@@H]1/C(=C\OC)C(=O)OC | 40.7 µg/mL (≈ 102 µM) | 0.5 µg/mL (≈ 1.25 µM) | 76.8 | 
14 | CC[C@H]1CN2CCc3c([nH]c4ccccc34)[C@H]2C[C@@H]1/C(C=O)=C(/O)OC | 8.4 µg/mL (≈ 23.7 µM) | > 8.4 µg/mL |  | 
15 | C=CC1CN2CCc3c([nH]c4ccccc34)C2C[C@@H]1/C(=C\OC)C(=O)OC (some centres undefined) | 25.2 µg/mL (≈ 68.8 µM) | 1.8 µg/mL (≈ 4.91 µM) | 14 | 
16 | CC[C@H]1CN2CCc3c([nH]c4ccccc34)[C@H]2C[C@@H]1/C(=C\OC)C(=O)OC [HIRSUTINE] |  |  |  | EC50 (MDCK [4]): > 23.5 µg/mL; EC50 (MDCK [5]): > 23.5 µg/mL; CC50 (MDCK [6]): 23.5 µg/mL (≈ 63.8 µM); EC50 (MDCK [7]): > 23.5 µg/mL; EC50 (MDCK [8]): > 23.5 µg/mL; EC50 (MDCK [9]): > 23.5 µg/mL; EC50 (MDCK [10]): 0.4 µg/mL (≈ 1.09 µM); EC50 (MDCK [11]): 0.57 µg/mL (≈ 1.55 µM); EC50 (MDCK [12]): > 23.5 µg/mL; EC50 (MDCK [13]): > 23.5 µg/mL; Ratio [14]: 58.8 and 41.2
